From patent publication US20190380978A1, “SOLID ORAL DOSAGE FORMS OF 2R,6R-HYDROXYNORKETAMINE OR DERIVATIVES THEREOF” (priority 2016, published 2019)

Columns and labels:
[1] = target: T1, CYP2B6 (Homo sapiens, UniProt P20813); assay: CYP inhibition assay, CYP2B6; type: in vitro ADME
T1 sequence (P20813 1-491): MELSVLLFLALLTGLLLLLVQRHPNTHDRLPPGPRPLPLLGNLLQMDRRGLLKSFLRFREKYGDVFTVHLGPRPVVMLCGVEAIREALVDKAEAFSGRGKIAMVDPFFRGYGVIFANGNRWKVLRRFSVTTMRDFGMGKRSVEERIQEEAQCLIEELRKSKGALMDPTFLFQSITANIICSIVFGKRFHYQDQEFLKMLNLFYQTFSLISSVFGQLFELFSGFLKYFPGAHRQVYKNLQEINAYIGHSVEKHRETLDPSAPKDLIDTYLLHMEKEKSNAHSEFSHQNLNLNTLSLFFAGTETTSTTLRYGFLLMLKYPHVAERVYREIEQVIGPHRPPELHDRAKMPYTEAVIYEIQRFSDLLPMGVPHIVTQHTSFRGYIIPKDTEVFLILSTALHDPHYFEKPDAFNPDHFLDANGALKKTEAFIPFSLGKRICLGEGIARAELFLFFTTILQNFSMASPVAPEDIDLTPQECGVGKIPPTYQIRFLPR
Text: (§1) Cytochrome P450s (CYPs) are a family of enzymes that play a primary role in the metabolism of a wide variety of drugs. 2R,6R-hydroxynorketamine was investigated for its potential to inhibit the action of 7 key CYP enzymes using an inhibition assay measuring reduction in the formation of metabolites compared to control.

[2] = target: T2, CYP1A2 (Homo sapiens, UniProt P05177); assay: CYP inhibition assay, CYP1A2; type: in vitro ADME
T2 sequence (P05177 1-516): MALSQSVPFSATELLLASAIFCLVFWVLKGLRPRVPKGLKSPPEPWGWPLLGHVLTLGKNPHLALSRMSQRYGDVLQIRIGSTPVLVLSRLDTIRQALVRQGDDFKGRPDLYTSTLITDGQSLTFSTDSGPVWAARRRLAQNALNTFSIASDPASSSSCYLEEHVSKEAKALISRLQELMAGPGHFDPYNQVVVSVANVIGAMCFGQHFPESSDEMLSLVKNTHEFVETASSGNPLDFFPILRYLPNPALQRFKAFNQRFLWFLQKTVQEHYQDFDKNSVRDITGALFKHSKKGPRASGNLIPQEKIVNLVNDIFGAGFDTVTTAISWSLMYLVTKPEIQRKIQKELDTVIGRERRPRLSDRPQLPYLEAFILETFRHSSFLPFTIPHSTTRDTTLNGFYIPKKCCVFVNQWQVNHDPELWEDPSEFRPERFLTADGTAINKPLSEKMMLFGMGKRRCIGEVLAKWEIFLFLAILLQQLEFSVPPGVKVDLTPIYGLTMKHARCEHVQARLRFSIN
Text: as §1

[3] = in vitro hepatocyte stability assay, rat; type: in vitro ADME; settings: cryopreserved hepatocytes
Description: (§2) 2R,6R-hydroxynorketamine was investigated using an in vitro hepatocyte stability assay, during which 2R,6R-hydroxynorketamine was incubated with cryopreserved hepatocytes from 3 test species.

[4] = system: plasma binding proteins; assay: fraction unbound in 100% plasma, human; type: in vitro ADME
Text: (§3) While the risk of DDIs due to displacement from plasma binding proteins (PPBs) is relatively low, it should be considered for drugs which display a high proportion PPB (fraction unbound (fu)<1%).
(§4) The fu was investigated for 2R,6R-hydroxynorketamine using a 100% plasma from 4 test species.

[5] = target: MAO-A (Homo sapiens, UniProt P21397); assay: binding to monoamine oxidase A
Sequence of MAO-A (P21397 whole entry, species assumed): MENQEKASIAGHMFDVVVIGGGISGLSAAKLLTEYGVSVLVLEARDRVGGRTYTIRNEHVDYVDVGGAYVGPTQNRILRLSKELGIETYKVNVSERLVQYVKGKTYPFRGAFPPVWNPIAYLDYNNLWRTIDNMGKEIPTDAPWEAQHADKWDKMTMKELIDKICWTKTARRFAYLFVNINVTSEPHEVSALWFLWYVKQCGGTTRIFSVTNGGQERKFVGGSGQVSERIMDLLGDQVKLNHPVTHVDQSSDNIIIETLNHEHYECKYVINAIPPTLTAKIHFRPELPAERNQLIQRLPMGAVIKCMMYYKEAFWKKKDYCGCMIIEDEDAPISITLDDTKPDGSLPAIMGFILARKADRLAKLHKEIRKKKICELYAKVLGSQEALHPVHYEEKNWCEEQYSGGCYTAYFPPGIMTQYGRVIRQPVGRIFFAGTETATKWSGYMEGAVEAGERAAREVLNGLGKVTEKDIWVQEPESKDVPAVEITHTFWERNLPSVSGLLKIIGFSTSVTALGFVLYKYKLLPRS
Text: (§5) 2R,6R-hydroxynorketamine was investigated for binding to monoamine oxidases A and B, monoamine transporters, as well as a variety of 5HT receptors.

[6] = turbidimetric aqueous solubility; type: physicochemical
[7] = target: dopamine transporter (Homo sapiens, UniProt Q01959); assay: binding to dopamine transporter
Sequence of dopamine transporter (Q01959 whole entry): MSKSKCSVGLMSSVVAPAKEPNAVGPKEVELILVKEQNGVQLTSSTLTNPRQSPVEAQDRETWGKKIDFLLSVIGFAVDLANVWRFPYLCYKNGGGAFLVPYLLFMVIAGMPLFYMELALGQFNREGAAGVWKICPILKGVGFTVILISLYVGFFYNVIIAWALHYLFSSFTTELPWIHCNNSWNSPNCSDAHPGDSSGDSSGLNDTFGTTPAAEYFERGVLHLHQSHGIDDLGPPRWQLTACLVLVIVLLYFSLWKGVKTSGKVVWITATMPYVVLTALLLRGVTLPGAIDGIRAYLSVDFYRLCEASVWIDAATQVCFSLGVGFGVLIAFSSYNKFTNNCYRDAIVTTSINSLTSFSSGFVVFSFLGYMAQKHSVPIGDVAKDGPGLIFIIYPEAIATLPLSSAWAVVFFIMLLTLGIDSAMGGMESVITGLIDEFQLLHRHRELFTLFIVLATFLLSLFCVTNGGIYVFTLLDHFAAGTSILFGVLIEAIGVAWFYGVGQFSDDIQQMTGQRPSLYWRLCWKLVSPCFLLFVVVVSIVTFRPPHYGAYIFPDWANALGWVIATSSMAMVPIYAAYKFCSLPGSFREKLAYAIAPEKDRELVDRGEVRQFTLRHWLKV
Text: as §5

[8] = in vitro; settings: human
[9] = target: CYP2C19 (Homo sapiens, UniProt P33261); assay: CYP inhibition assay, CYP2C19; type: in vitro ADME
Sequence of CYP2C19 (P33261 whole entry): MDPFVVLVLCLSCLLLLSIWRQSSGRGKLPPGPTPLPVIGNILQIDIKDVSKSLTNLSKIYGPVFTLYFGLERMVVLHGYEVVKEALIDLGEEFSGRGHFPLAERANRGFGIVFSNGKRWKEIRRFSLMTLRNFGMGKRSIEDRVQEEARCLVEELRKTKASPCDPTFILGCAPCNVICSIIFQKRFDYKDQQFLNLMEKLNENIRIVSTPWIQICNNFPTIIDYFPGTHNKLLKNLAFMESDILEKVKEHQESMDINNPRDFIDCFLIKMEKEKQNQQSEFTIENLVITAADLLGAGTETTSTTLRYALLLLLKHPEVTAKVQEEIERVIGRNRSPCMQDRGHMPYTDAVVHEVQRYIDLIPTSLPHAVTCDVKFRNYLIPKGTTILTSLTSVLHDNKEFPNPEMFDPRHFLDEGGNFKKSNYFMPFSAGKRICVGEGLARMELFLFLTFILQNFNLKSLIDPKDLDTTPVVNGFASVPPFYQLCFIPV
Text: as §1

[10] = metabolite profiling; type: in vitro ADME; settings: hepatocyte data with metabolite profiling
Description: as §2

[11] = system: plasma binding proteins; assay: fraction unbound in 100% plasma, rat; type: in vitro ADME
Text: as §3, §4

[12] = target: 5-HT1B (Homo sapiens, UniProt P28222); assay: binding to 5-HT1B receptor
Sequence of 5-HT1B (P28222 whole entry, species assumed): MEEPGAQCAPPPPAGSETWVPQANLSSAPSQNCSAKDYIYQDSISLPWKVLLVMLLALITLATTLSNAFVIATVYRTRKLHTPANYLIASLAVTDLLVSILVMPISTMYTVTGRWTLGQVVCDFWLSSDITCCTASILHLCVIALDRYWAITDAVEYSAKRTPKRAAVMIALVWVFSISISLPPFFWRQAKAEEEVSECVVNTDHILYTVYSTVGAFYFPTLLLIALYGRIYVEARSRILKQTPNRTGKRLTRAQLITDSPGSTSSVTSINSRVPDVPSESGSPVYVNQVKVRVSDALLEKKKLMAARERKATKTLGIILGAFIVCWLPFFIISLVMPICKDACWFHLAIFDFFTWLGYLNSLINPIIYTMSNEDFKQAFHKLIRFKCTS
Text: as §5

[13] = system: α-amino-3-hydroxy-5-methyl-4-isoxazolepropionic acid receptor (AMPAR)-mediated currents; assay: in vitro electrophysiological experiments (fEPSPs)
Description: The free (unbound) concentration of 2R,6R-hydroxynorketamine producing pharmacodynamics activity in the brain is estimated to be approximately 10 μM.

[14] = target: 5-HT2B (Homo sapiens, UniProt P41595); assay: binding to 5-HT2B receptor
Sequence of 5-HT2B (P41595 whole entry, species assumed): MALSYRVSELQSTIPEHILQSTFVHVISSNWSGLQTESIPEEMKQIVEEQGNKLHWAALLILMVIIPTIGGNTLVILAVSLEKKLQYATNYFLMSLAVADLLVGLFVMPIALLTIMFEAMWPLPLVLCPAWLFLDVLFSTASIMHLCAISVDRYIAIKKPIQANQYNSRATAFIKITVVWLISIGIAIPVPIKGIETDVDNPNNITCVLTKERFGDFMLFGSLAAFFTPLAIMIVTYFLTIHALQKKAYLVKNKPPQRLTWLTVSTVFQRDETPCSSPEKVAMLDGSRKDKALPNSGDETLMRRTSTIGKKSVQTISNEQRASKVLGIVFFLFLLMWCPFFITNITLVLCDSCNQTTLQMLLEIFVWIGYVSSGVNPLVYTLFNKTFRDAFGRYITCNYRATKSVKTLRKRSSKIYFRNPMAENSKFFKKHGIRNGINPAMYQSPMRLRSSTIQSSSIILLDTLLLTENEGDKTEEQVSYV
Text: as §5

## N[C@@]1(c2ccccc2Cl)CCC[C@@H](O)C1=O [2R,6R-hydroxynorketamine]
[1]
  inhibition of CYP2B6: did not inhibit
[1]; human, 0.4 μM
  inhibition at 0.4 µM: 6.03%
[1]; human, 1 μM
  inhibition at 1 µM: 10.1%
[1]; human, 4 μM
  inhibition at 4 µM: 10.6%
[1]; human, 10 μM
  inhibition at 10 µM: 14.4%
[1]; human, 40 μM
  inhibition at 40 µM: 14.8%
[1]; human, 100 μM
  inhibition at 100 µM: 16.7%
[2]
  IC50: ~100 µM
[2]; 0.4 μM
  inhibition at 0.4 µM: 7.55%
[2]; 1 μM
  inhibition at 1 µM: 8.8%
[2]; 4 μM
  inhibition at 4 µM: 11.7%
[2]; 10 μM
  inhibition at 10 µM: 19.3%
[2]; 40 μM
  inhibition at 40 µM: 24.8%
[2]; 100 μM
  inhibition at 100 µM: 48.6%
[3]
  half-life: 25.1 min
  hepatocyte CLint: 55.2 µL/min/1e6 cells
[4]
  plasma protein binding (PPB), words: low PPB
[5]
  % Inhibition of Control Specific Binding: −5%
  % of Control Specific Binding: 97.7%
[6]
  estimated precipitation range lower bound: 100 µM
  estimated precipitation range upper bound: > 100 µM
  solubility: high solubility
[7]
  % Inhibition of Control Specific Binding: 11%
  % of Control Specific Binding: 87.2%
  activity at dopamine transporters: nor activity at dopamine transporters
[8]; Caco-2, Direction = A2B Mean % Recovery, Caco-2, A2B
  recovery: 98.9%
[8]; Caco-2, Direction = A2B Mean Papp, Caco-2, A2B, mean, n 2
  Papp A→B: 45.7 ×10⁻⁶ cm/s
[8]; Caco-2, Direction = A2B Papp Replicate 1, Caco-2, A2B, replicate 1
  Papp A→B: 49.1 ×10⁻⁶ cm/s
[8]; Caco-2, Direction = A2B Papp Replicate 2, Caco-2, A2B, replicate 2
  Papp A→B: 42.3 ×10⁻⁶ cm/s
[8]; Caco-2, Direction = B2A Mean % Recovery, Caco-2, B2A
  recovery: 103%
[8]; Caco-2, Direction = B2A Mean Papp, Caco-2, B2A, mean, n 2
  Papp B→A: 50.7 ×10⁻⁶ cm/s
[8]; Caco-2, Direction = B2A Papp Replicate 1, Caco-2, B2A, replicate 1
  Papp B→A: 52.8 ×10⁻⁶ cm/s
[8]; Caco-2, Direction = B2A Papp Replicate 2, Caco-2, B2A, replicate 2
  Papp B→A: 48.5 ×10⁻⁶ cm/s
[8]; Caco-2, Efflux Ratio (Mean Papp B2A/Mean Papp A2B), Caco-2, without inhibitor
  efflux ratio: < 2
[9]
  inhibition of CYP2C19: did not inhibit
[9]; human, 0.4 μM
  inhibition at 0.4 µM: -2.01%
[9]; human, 1 μM
  inhibition at 1 µM: -1.66%
[9]; human, 4 μM
  inhibition at 4 µM: 1.85%
[9]; human, 10 μM
  inhibition at 10 µM: 6.69%
[9]; human, 40 μM
  inhibition at 40 µM: 8.25%
[9]; human, 100 μM
  inhibition at 100 µM: 16.1%
[10]
  phase I metabolism by CYP enzymes: does not undergo phase I metabolism
  route of metabolism and excretion: glucuronidated and excreted via the renal system
[11]
  plasma protein binding (PPB), words: low PPB
[12]
  % Inhibition of Control Specific Binding: −2%
  % of Control Specific Binding: 102.7%
  binding to 5HT1B receptor subtype: does not bind
[13]; 10 μM, in vitro electrophysiology
  field excitatory postsynaptic potentials (fEPSPs): increase
[13]; estimated
  free (unbound) concentration producing pharmacodynamics activity in the brain: approximately 10 μM
[14]
  % Inhibition of Control Specific Binding: 5%
  % of Control Specific Binding: 100.9%
  binding to 5HT2B receptor subtype: does not bind
